Data: patent US9936699B2, “Halogen-substituted compounds” (BAYER CROPSCIENCE AKTIENGESELLSCHAFT, priority 2014, dated 2018)

What was measured:
[1] = test system: adult unfed cat fleas (Ctenocephalides felis); experiment: Ctenocephalides felis oral test (CTECFE); format: in vivo; details: 48 h, read-out: mortality in %
Experimental: Ctenocephalides felis—Oral Test (CTECFE)
(§1) Solvent: dimethyl sulfoxide
Approximately 20 adult unfed cat fleas (Ctenocephalides felis) are placed in flea chambers. The blood chamber, sealed with parafilm on the bottom, are filled with cattle blood supplied with compound solution and placed on the gauze covered top of the flea chamber, so that the fleas are able to suck the blood. The blood chamber is heated to 37° C. whereas the flea chamber is kept at room temperature.

[2] = test system: two spotted spidermite (Tetranychus urticae); experiment: Tetranychus urticae spray test OP-resistant (French bean leaf disks); format: in vivo; details: Tetranychus urticae, foliar, 144 h, read-out: mortality in %
Experimental: Tetranychus urticae—Spray Test OP-Resistant
(§2) Solvent: 78.0 parts by weight acetone
(§3) • 1.5 parts by weight dimethylformamide Emulsifier: alkylarylpolyglycol ether
French bean (Phaseolus vulgaris) leaf disks which are heavily infested with all stages of the two spotted spidermite (Tetranychus urticae) are sprayed with a preparation of the active ingredient of the desired concentration.
(§4) After 6 days mortality in % is determined.

[3] = test system: fall armyworm larvae (Spodoptera frugiperda); experiment: Spodoptera frugiperda spray test (maize leaf sections); format: in vivo; details: Spodoptera frugiperda, 168 h, read-out: mortality in %
Description: Spodoptera frugiperda—Spray Test
as §2, §3
Maize (Zea mays) leaf sections are sprayed with a preparation of the active ingredient of the desired concentration. Once dry, the leaf sections are infested with fall armyworm larvae (Spodoptera frugiperda).

[4] = test system: larvae of the Australian sheep blowfly (Lucilia cuprina); experiment: Lucilia cuprina test (LUCICU); format: in vivo; details: Lucilia cuprina, 48 h, read-out: mortality in %
Experimental: Lucilia cuprina—Test (LUCICU)
as §1
10 mg active compound are dissolved in 0.5 ml Dimethylsulfoxid. Serial dilutions are made to obtain the desired rates.
Approximately 20 […] instar larvae of the Australian sheep blowfly (Lucilia cuprina) are transferred into a test tube containing minced horse meat and compound solution of the desired concentration.

[5] = test system: adult house flies (Musca domestica); experiment: Musca domestica test (MUSCDO); format: in vivo; details: Musca domestica, 48 h, read-out: mortality in %
Description: Musca domestica—Test (MUSCDO)
as §1
10 adult house flies (Musca domestica) are transferred into a container, containing a sponge soaked with a mixture of sugar solution and compound solution of the desired concentration.

[6] = test system: two-spotted spider mite (Tetranychus urticae); experiment: Tetranychus urticae spray test; OP-resistant (bean plants); format: in vivo; details: Tetranychus urticae, 168 h, read-out: mortality in %
[7] = test system: mustard beetle larvae (Phaedon cochleariae); experiment: Phaedon cochleariae spray test (cabbage leaves); details: in Brassica oleracea, 168 h, read-out: mortality in %
[8] = test system: green peach aphid (Myzus persicae); experiment: Myzus persicae spray test (Chinese cabbage leaf disks); format: in vivo; details: Myzus persicae, foliar, 144 h, read-out: mortality in %
Experimental: Myzus persicae—Spray Test
as §2, §3
Chinese cabbage (Brassica pekinensis) leaf disks infected with all instars of the green peach aphid (Myzus persicae), are sprayed with a preparation of the active ingredient of the desired concentration.
as §4

[9] = test system: mustard beetle larvae (Phaedon cochleariae); experiment: Phaedon cochleariae spray test (Chinese cabbage leaf disks); format: in vivo; details: foliar, 168 h, read-out: mortality in %
Description: Phaedon cochleariae—Spray Test
Solvent: 78.0 parts by weight of acetone
• 1.5 parts by weight of dimethylformamide Emulsifier: alkylarylpolyglycol ether
Chinese cabbage (Brassica pekinensis) leaf disks are sprayed with a preparation of the active ingredient of the desired concentration.

[10] = test system: cattle ticks (Boophilus microplus) strane Parhurst, SP-resistant; experiment: Boophilus microplus dip test (BOOPMI Dip); format: in vivo; details: 100 ppm, egg deposition after 7 days
Description: Boophilus microplus—Diptest (BOOPMI Dip)
Test animal: cattle ticks (Boophilus microplus) strane Parhurst, SP-resistant
as §1
This compound solution is pipetted into tubes. 8-10 engorged, adult, female cattle ticks (Boophilus microplus) are placed in perforated tubes. These tubes are immersed in the aqueous compound solution until the ticks are completely moistened. After the liquid has drained off, the ticks are transferred to a filter paper in a plastic tray and stored in a climate chamber.
(§5) After 7 days egg deposition of fertile eggs is monitored. Eggs where fertility is not visible are stored in a climate chamber till hatching after about 42 days. An efficacy of 100% means all eggs are infertile; 0% means all eggs are fertile.

[11] = logP determination by HPLC on reversed-phase column (C18), EEC Directive 79/831 Annex V.A8; format: physicochemical; details: reversed-phase C18, acetonitrile/water with formic acid
[12] = test system: Tick nymphs (Amblyomma hebraeum); experiment: Amblyomma hebraeum test (AMBYHE); format: in vivo; details: Amblyomma hebraeum, 1008 h, read-out: mortality in %
Experimental: Amblyomma hebraeum—Test (AMBYHE)
as §1
Tick nymphs (Amblyomma hebraeum) are placed in perforated plastic beakers and immersed in the aqueous compound solution for one minute. Ticks are transferred to a filter paper in a petridish and incubated in a climate chamber.

[13] = test system: adult engorged female ticks (Boophilus microplus); experiment: Boophilus microplus injection test (BOOPMI Inj); format: in vivo; details: 20 μg/animal, egg deposition after 7 days
Experimental: Boophilus microplus—Injectiontest (BOOPMI Inj)
as §1
Five adult engorged female ticks (Boophilus microplus) are injected with 1 μl compound solution into the abdomen. The ticks are transferred into replica plates and incubated in a climate chamber.
as §5

## CSc1c(C(F)(F)C(F)(F)F)nn(C)c1-n1cc(-c2ccc(Cl)c(C(=O)NC3(C#N)CC3)c2)cn1 [Example I-02, 2-chloro-N-(1-cyanocyclopropyl)-5-[2′-methyl-4′-(methylsulfanyl)-5′-(pentafluoroethyl)-2′H-1,3′-bipyrazol-4-yl]benzamide]
[1]
  mortality at 100 ppm: 100%
[2]
  mortality at 100 g/ha: 100%
[3]
  mortality at 100 g/ha: 100%
[4]
  mortality at 100 ppm: 100%
[5]
  mortality at 100 ppm: 90%
[6]
  mortality at 4 ppm: 100%
[7]
  mortality at 4 ppm: 100%
[8]
  mortality at 100 g/ha: 100%
[9]
  mortality at 100 g/ha: 100%
[10]
  efficacy (infertile eggs): 100%
[11]
  logP: 3.56
[11]; reversed-phase C18 HPLC column
  chromatographic logP: 3.58
[12]
  mortality at 100 ppm: 100%
[13]
  efficacy (infertile eggs): 100%
